Test results published in patent publication US20250345592A1, “BIODEGRADABLE ION PATCH AND METHOD FOR MANUFACTURING THE SAME” (SEOUL NATIONAL UNIVERSITY R&DB FOUNDATION, priority 2023, published 2025).

Type: in vitro ADME
Protocol: To enhance the absorption efficiency of the drug loaded in the provided gel, the current density applied to the ion patch was adjusted. Specifically, caffeine was added to the gelatin gel laminated on the anode of the ion patch, and various current densities of 50, 100, and 150 μA were applied. The amount of caffeine absorbed into the skin was then measured and compared.

Cn1c(=O)c2c(ncn2C)n(C)c1=O [caffeine]
amount of caffeine absorbed into the skin: highest in the order of 150, 50, and 100 μA current densities
